Literature values, collected in patent US10544223B2, “Combination therapy with an anti-axl antibody-drug conjugate” (ADC THERAPEUTICS SA, priority 2017, dated 2020).

Columns and labels:
AXL = conditions: incubation of tumor cells with MEKi
DNA repair genes = conditions: inhibition of AXL
advanced melanoma = conditions: phase III trials, advanced melanoma patients

| Compound | accumulation of AXL on the membrane of tumor cells (AXL) | efficiency of the homologous recombination repair machinery (DNA repair genes) | expression of DNA repair genes (DNA repair genes) | also measured |
| --- | --- | --- | --- | --- |
| O=C(NOC[C@H](O)CO)c1ccc(F)c(F)c1Nc1ccc(I)cc1F [PD325901] | induced a strong accumulation of AXL | – | – | – |
| CN1CCN(Cc2ccc(Nc3ncc(Cl)c(Nc4ccccc4S(=O)(=O)N(C)C)n3)cc2)CC1 [TP0903] | – | diminish the efficiency of the homologous recombination repair machinery | decrease expression of DNA repair genes | – |
| tremelimumab: anti-CTLA4 antibody | – | – | – | overall survival compared to the standard of care (temozolomide or dacarbazine) (advanced melanoma): did not significantly increase the overall survival |
| Fludarabine | – | – | – | ERCC1 transcription (ERCC1 transcription): suppress ERCC1 transcription |
| Nc1nc(Nc2ccc3c(c2)CC[C@@H](N2CCCC2)CC3)nn1-c1cc2c(nn1)-c1ccccc1CCC2 [BGB324] | – | diminish the efficiency of the homologous recombination repair machinery | decrease expression of DNA repair genes | – |
| N#CC(=C(/N)Sc1ccccc1N)/C(C#N)=C(\N)Sc1ccccc1N [U0126] | induced a strong accumulation of AXL | – | – | – |
